Assay results: patent EP1163907A1, “Use of l-threo-methylphenidate for the treatment of depression” (Pharmaquest Limited, priority 2000, dated 2001)
Read-outs that look alike come from different tables or passages of the source. Marks after values point to notes of the source that are not given here.

How the values were obtained:
[1] = Balanced, randomized 4-phase cross-over study, Profile of Mood State (POMS) rating scale after intravenous administration; type: in vivo, healthy male volunteers; settings: for composite "Dysphoria" ratings: POMS Anger-Hostility plus Depression plus Tension-Anxiety, compared with placebo, Figure 3; for rank order of ratings of the three components of "Dysphoria" (Tension, Depression and Anger): four treatments, same order for each component, Figure 4; for vigor ratings: POMS Vigor-Activity, compared with 1-MPH and placebo, Figure 2; for effect on "Energy": POMS composite score (Vigor-Activity minus Fatigue-Inertia), Figure 1
Procedure: A balanced, randomized 4-phase cross-over study was carried out in 12 healthy male volunteers who each received intravenous administrations of dl-MPH, d-threo-methylphenidate (d-MPH), 1-MPH and placebo. The Profile of Mood State (POMS) rating scale was used to estimate pharmacodynamic factors including Anger-Hostility, Confusion-Bewilderment, Depression-Dejection, Fatigue-Inertia, Tension-Anxiety, and Vigor-Activity. In addition composite scores were also produced for "Energy" ("Vigor-Activity" minus "Fatigue-Inertia") and 'Dysphoria" ("Anger-Hostility" plus […] plus "Tension-Anxiety").
This paradox apparently arose because d-MPH enhanced both components of "Energy" (Vigor-Activity and Fatigue-Inertia) over the test period.
The Fatigue-Inertia factor was not a simple rebound phenomenon.
There were very robust effects of drug condition on composite "Dysphoria" ratings. The d-MPH and to a lesser extent dl-MPH both increased "Dysphoria" compared with the placebo or 1-MPH.
Figure 4 depicts the response of the three components of "Dysphoria" (Tension, Depression and Anger) to the four treatments. […] Thus it appears that the overall pharmacodynamic effect of dl-MPH may represent an interaction between the "Dysphoric" effects of d-MPH and the mildly euphoric effects of 1-MPH. It is conceivable that the 1-MPH will emerge as euphoriant or antidepressant in subjects with higher baseline "Dysphoria" scores such as depressed patients in whom the dose of 1-MPH will have to be titrated.

[2] = cited from earlier work
[3] = mean ±SD in plasma; intravenous 10mg dl-MPH; 11 healthy male volunteers; cited from earlier work
[4] = oral, cited from earlier work
[5] = target: central dopamine transporters (Homo sapiens, UniProt Q01959); settings: after oral administration of dl-MPH in humans; cited from earlier work
Chain of central dopamine transporters (Q01959 whole entry): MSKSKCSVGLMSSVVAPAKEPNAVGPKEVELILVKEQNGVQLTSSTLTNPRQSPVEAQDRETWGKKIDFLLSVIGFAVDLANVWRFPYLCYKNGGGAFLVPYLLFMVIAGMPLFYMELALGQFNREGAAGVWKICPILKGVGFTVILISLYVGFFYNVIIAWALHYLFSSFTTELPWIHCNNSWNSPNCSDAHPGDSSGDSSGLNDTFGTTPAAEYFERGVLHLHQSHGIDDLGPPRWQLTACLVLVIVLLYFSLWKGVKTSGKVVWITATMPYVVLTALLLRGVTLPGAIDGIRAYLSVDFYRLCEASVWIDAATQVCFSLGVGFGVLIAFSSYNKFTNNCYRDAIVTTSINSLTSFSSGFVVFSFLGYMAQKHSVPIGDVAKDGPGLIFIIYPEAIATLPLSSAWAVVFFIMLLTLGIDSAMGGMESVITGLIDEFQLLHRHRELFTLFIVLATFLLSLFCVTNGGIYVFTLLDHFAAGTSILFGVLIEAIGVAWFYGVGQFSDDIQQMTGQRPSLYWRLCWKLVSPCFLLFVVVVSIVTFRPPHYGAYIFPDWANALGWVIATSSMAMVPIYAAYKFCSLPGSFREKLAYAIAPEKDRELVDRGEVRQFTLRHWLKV

Structure (SMILES)	composite "Dysphoria" ratings [1]	rank order of ratings of the three components of "Dysphoria" (Tension, Depression and Anger) [1]	concentrations in plasma and brain ([2]; after oral administration of dl-MPH, extensive enantioselective first pass metabolism)	CL [3]	CLR [3]	MRT [3]	Vdss [3]	vigor ratings [1]	effect on "Energy" [1]	Hamilton depression scale decreased ([4]; 3 subjects, decreased minimally) [%]	Hamilton depression scale decreased ([4]; 7 subjects, depressive symptoms decreased markedly) [%]	benefit in depressed patients ([4]; n = 16)	absolute bioavailability (F) ([2]; after oral administration of the racemic drug)	blocking central dopamine transporters [5]
COC(=O)[C@@H](c1ccccc1)[C@@H]1CCCCN1 [1-MPH, 2S,2'S-methyl 2-phenyl-2-(2'-piperidyl)acetate]	numerically lower	1-MPH < placebo < dl-MPH < d-MPH	very low	0.73±0.028^h L/kg.h^-1	0.005±0.003^c l/kg.h^-1	2.44±0.51^b h	1.80±0.91^b L/kg							
COC(=O)[C@H](c1ccccc1)[C@H]1CCCCN1 (racemic) [dl-MPH, dl-threo-methylphenidate]	increased	1-MPH < placebo < dl-MPH < d-MPH						significantly different	enhanced	< 30	> 55	statistically and clinically significant		
COC(=O)[C@H](c1ccccc1)[C@H]1CCCCN1 [d-MPH, d-threo-methylphenidate]	increased	1-MPH < placebo < dl-MPH < d-MPH			0.005±0.003 l/kg.h^-1	6.53 ± 1.62 h	2.65 ± 1.11 L/kg	significantly different	not strongly energizing				0.25	very effective
